# Reference: ChEMBL document CHEMBL1629662, “Antimicrobial activity of prulifloxacin tested against a worldwide collection of gastroenteritis-producing pathogens, including those causing traveler's diarrhea” (2009)
# Columns and labels:
# [1] = system: Escherichia coli; assay: Antibacterial activity against Escherichia coli by broth microdilution method; type: functional
# [2] = system: Salmonella typhimurium; assay: Antibacterial activity against Salmonella enterica serovar Typhimurium by broth microdilution method; type: functional, Salmonella enterica subsp. enterica serovar Typhimurium
# [3] = system: Salmonella enteritidis; assay: Antibacterial activity against Salmonella enterica serovar Enteritidis by broth microdilution method; type: functional, Salmonella enterica subsp. enterica serovar Enteritidis
# [4] = system: Shigella sonnei; assay: Antibacterial activity against Shigella sonnei by broth microdilution method; type: functional
# [5] = system: Shigella flexneri; assay: Antibacterial activity against Shigella flexneri by broth microdilution method; type: functional
# [6] = system: Shigella boydii; assay: Antibacterial activity against Shigella boydii by broth microdilution method; type: functional
# [7] = system: Shigella dysenteriae; assay: Antibacterial activity against Shigella dysenteriae by broth microdilution method; type: functional
# [8] = system: Yersinia enterocolitica; assay: Antibacterial activity against Yersinia enterocolitica by broth microdilution method; type: functional
# [9] = system: Yersinia pseudotuberculosis; assay: Antibacterial activity against Yersinia pseudotuberculosis by broth microdilution method; type: functional
# [10] = system: Aeromonas hydrophila; assay: Antibacterial activity against Aeromonas hydrophila by broth microdilution method; type: functional
# [11] = system: Aeromonas caviae; assay: Antibacterial activity against Aeromonas caviae by broth microdilution method; type: functional
# [12] = system: Aeromonas sobria; assay: Antibacterial activity against Aeromonas sobria by broth microdilution method; type: functional
# [13] = system: Aeromonas veronii; assay: Antibacterial activity against Aeromonas veronii by broth microdilution method; type: functional
# [14] = system: Plesiomonas shigelloides; assay: Antibacterial activity against Plesiomonas shigelloides by broth microdilution method; type: functional
# [15] = system: Vibrio cholerae; assay: Antibacterial activity against Vibrio cholerae by broth microdilution method; type: functional
# [16] = system: Vibrio parahaemolyticus; assay: Antibacterial activity against Vibrio parahaemolyticus by broth microdilution method; type: functional
# [17] = system: Vibrio alginolyticus; assay: Antibacterial activity against Vibrio alginolyticus by broth microdilution method; type: functional
# [18] = system: Vibrio fluvialis; assay: Antibacterial activity against Vibrio fluvialis by broth microdilution method; type: functional
# [19] = system: Vibrio vulnificus; assay: Antibacterial activity against Vibrio vulnificus by broth microdilution method; type: functional
# [20] = system: Vibrio sp.; assay: Antibacterial activity against Vibrio sp. by broth microdilution method; type: functional
# [21] = system: Campylobacter jejuni; assay: Antibacterial activity against Campylobacter jejuni by broth microdilution method; type: functional
# [22] = system: Campylobacter coli; assay: Antibacterial activity against Campylobacter coli by broth microdilution method; type: functional
# [23] = system: Escherichia coli; assay: Antibacterial activity against Escherichia coli assessed as percent susceptible isolates by broth microdilution method; type: functional
# [24] = system: Escherichia coli; assay: Antibacterial activity against Escherichia coli assessed as percent resistant isolates by broth microdilution method; type: functional
# [25] = system: Salmonella typhimurium; assay: Antibacterial activity against Salmonella enterica serovar Typhimurium assessed as percent resistant isolates by broth microdilution method; type: functional, Salmonella enterica subsp. enterica serovar Typhimurium; details: pooled result: one value given for 8 cell lines, strains, targets or settings
# [26] = system: Salmonella enteritidis; assay: Antibacterial activity against Salmonella enterica serovar Enteritidis assessed as percent susceptible isolates by broth microdilution method; type: functional, Salmonella enterica subsp. enterica serovar Enteritidis; details: pooled result: one value given for 5 cell lines, strains, targets or settings
# [27] = system: Shigella sonnei; assay: Antibacterial activity against Shigella sonnei assessed as percent resistant isolates by broth microdilution method; type: functional; details: pooled result: one value given for 4 cell lines, strains, targets or settings
# [28] = system: Shigella boydii; assay: Antibacterial activity against Shigella boydii assessed as percent susceptible isolates by broth microdilution method; type: functional; details: pooled result: one value given for 3 cell lines, strains, targets or settings
# [29] = system: Yersinia enterocolitica; assay: Antibacterial activity against Yersinia enterocolitica assessed as percent susceptible isolates by broth microdilution method; type: functional
# [30] = system: Yersinia enterocolitica; assay: Antibacterial activity against Yersinia enterocolitica assessed as percent resistant isolates by broth microdilution method; type: functional
# [31] = system: Aeromonas hydrophila; assay: Antibacterial activity against Aeromonas hydrophila assessed as percent susceptible isolates by broth microdilution method; type: functional
# [32] = system: Aeromonas hydrophila; assay: Antibacterial activity against Aeromonas hydrophila assessed as percent resistant isolates by broth microdilution method; type: functional
# [33] = system: Aeromonas caviae; assay: Antibacterial activity against Aeromonas caviae assessed as percent susceptible isolates by broth microdilution method; type: functional
# [34] = system: Aeromonas caviae; assay: Antibacterial activity against Aeromonas caviae assessed as percent resistant isolates by broth microdilution method; type: functional
# [35] = system: Aeromonas sobria; assay: Antibacterial activity against Aeromonas sobria assessed as percent susceptible isolates by broth microdilution method; type: functional
# [36] = system: Aeromonas sobria; assay: Antibacterial activity against Aeromonas sobria assessed as percent resistant isolates by broth microdilution method; type: functional
# [37] = system: Aeromonas veronii; assay: Antibacterial activity against Aeromonas veronii assessed as percent susceptible isolates by broth microdilution method; type: functional
# [38] = system: Aeromonas veronii; assay: Antibacterial activity against Aeromonas veronii assessed as percent resistant isolates by broth microdilution method; type: functional
# [39] = system: Plesiomonas shigelloides; assay: Antibacterial activity against Plesiomonas shigelloides assessed as percent susceptible isolates by broth microdilution method; type: functional
# [40] = system: Plesiomonas shigelloides; assay: Antibacterial activity against Plesiomonas shigelloides assessed as percent resistant isolates by broth microdilution method; type: functional
# [41] = system: Vibrio cholerae; assay: Antibacterial activity against Vibrio cholerae assessed as percent susceptible isolates by broth microdilution method; type: functional
# [42] = system: Vibrio cholerae; assay: Antibacterial activity against Vibrio cholerae assessed as percent resistant isolates by broth microdilution method; type: functional
# [43] = system: Vibrio parahaemolyticus; assay: Antibacterial activity against Vibrio parahaemolyticus assessed as percent susceptible isolates by broth microdilution method; type: functional
# [44] = system: Vibrio parahaemolyticus; assay: Antibacterial activity against Vibrio parahaemolyticus assessed as percent resistant isolates by broth microdilution method; type: functional
# [45] = system: Vibrio alginolyticus; assay: Antibacterial activity against Vibrio alginolyticus assessed as percent susceptible isolates by broth microdilution method; type: functional
# [46] = system: Vibrio alginolyticus; assay: Antibacterial activity against Vibrio alginolyticus assessed as percent resistant isolates by broth microdilution method; type: functional
# [47] = system: Vibrio fluvialis; assay: Antibacterial activity against Vibrio fluvialis assessed as percent susceptible isolates by broth microdilution method; type: functional
# [48] = system: Vibrio fluvialis; assay: Antibacterial activity against Vibrio fluvialis assessed as percent resistant isolates by broth microdilution method; type: functional
# [49] = system: Vibrio vulnificus; assay: Antibacterial activity against Vibrio vulnificus assessed as percent susceptible isolates by broth microdilution method; type: functional
# [50] = system: Vibrio vulnificus; assay: Antibacterial activity against Vibrio vulnificus assessed as percent resistant isolates by broth microdilution method; type: functional
# [51] = system: Vibrio sp.; assay: Antibacterial activity against Vibrio sp. assessed as percent susceptible isolates by broth microdilution method; type: functional
# [52] = system: Vibrio sp.; assay: Antibacterial activity against Vibrio sp. assessed as percent resistant isolates by broth microdilution method; type: functional
# [53] = system: Campylobacter jejuni; assay: Antibacterial activity against Campylobacter jejuni assessed as percent susceptible isolates by broth microdilution method; type: functional; details: pooled result: one value given for 2 cell lines, strains, targets or settings
# [54] = system: Campylobacter jejuni; assay: Antibacterial activity against Campylobacter jejuni assessed as percent resistant isolates by broth microdilution method; type: functional; details: pooled result: one value given for 2 cell lines, strains, targets or settings
smiles,measurement,setting,value
CO[C@H]1/C=C/O[C@@]2(C)Oc3c(C)c(O)c4c(O)c(c5c(nc6cc(C)ccn65)c4c3C2=O)NC(=O)/C(C)=C\C=C\[C@H](C)[C@H](O)[C@@H](C)[C@@H](O)[C@@H](C)[C@H](OC(C)=O)[C@@H]1C [RIFAXIMIN],MIC50,[1],8 µg/mL
same,MIC90,[1],16 µg/mL
same,MIC50,[2],8 µg/mL
same,MIC90,[2],16 µg/mL
same,MIC50,[3],8 µg/mL
same,MIC90,[3],16 µg/mL
same,MIC50,[4],8 µg/mL
same,MIC90,[4],16 µg/mL
same,MIC50,[5],8 µg/mL
same,MIC90,[5],16 µg/mL
same,MIC50,[6],8 µg/mL
same,MIC90,[6],16 µg/mL
same,MIC50,[7],8 µg/mL
same,MIC90,[7],16 µg/mL
same,MIC50,[8],4 µg/mL
same,MIC90,[8],8 µg/mL
same,MIC50,[9],4 µg/mL
same,MIC90,[9],8 µg/mL
same,MIC50,[10],4 µg/mL
same,MIC90,[10],8 µg/mL
same,MIC50,[11],4 µg/mL
same,MIC90,[11],8 µg/mL
same,MIC50,[12],4 µg/mL
same,MIC90,[12],8 µg/mL
same,MIC50,[13],4 µg/mL
same,MIC90,[13],8 µg/mL
same,MIC,[14],8 µg/mL
same,MIC50,[14],8 µg/mL
same,MIC50,[15],0.5 µg/mL
same,MIC90,[15],1 µg/mL
same,MIC50,[16],0.5 µg/mL
same,MIC90,[16],1 µg/mL
same,MIC50,[17],0.5 µg/mL
same,MIC90,[17],1 µg/mL
same,MIC50,[18],0.5 µg/mL
same,MIC90,[18],1 µg/mL
same,MIC50,[19],0.5 µg/mL
same,MIC90,[19],1 µg/mL
same,MIC50,[20],0.5 µg/mL
same,MIC90,[20],1 µg/mL
same,MIC50,[21],32 µg/mL
same,MIC90,[21],32 µg/mL
same,MIC50,[22],32 µg/mL
same,MIC90,[22],32 µg/mL
C[C@H]1c2cccc(O)c2C(=O)C2=C(O)[C@]3(O)C(=O)C(C(N)=O)=C(O)[C@@H](N(C)C)[C@@H]3[C@@H](O)[C@@H]21.O [DOXYCYCLINE],MIC50,[1],2 µg/mL
same,MIC90,[1],16 µg/mL
same,Activity,[23],76%
same,Activity,[24],16%
same,MIC50,[2],2 µg/mL
same,MIC90,[2],32 µg/mL
same,Activity,[25],13.9%
same,MIC50,[3],2 µg/mL
same,MIC90,[3],32 µg/mL
same,Activity,[26],82.2%
same,MIC50,[4],16 µg/mL
same,MIC90,[4],32 µg/mL
same,Activity,[27],52.5%
same,MIC50,[5],16 µg/mL
same,MIC90,[5],32 µg/mL
same,MIC50,[6],16 µg/mL
same,MIC90,[6],32 µg/mL
same,Activity,[28],34.7%
same,MIC50,[7],16 µg/mL
same,MIC90,[7],32 µg/mL
same,MIC50,[8],1 µg/mL
same,MIC90,[8],2 µg/mL
same,Activity,[29],95.7%
same,Activity,[30],4.3%
same,MIC50,[9],1 µg/mL
same,MIC90,[9],2 µg/mL
same,MIC50,[10],0.5 µg/mL
same,MIC90,[10],1 µg/mL
same,Activity,[31],100%
same,Activity,[32],0%
same,MIC50,[11],0.5 µg/mL
same,MIC90,[11],1 µg/mL
same,Activity,[33],100%
same,Activity,[34],0%
same,MIC50,[12],0.5 µg/mL
same,MIC90,[12],1 µg/mL
same,Activity,[35],100%
same,Activity,[36],0%
same,MIC50,[13],0.5 µg/mL
same,MIC90,[13],1 µg/mL
same,Activity,[37],100%
same,Activity,[38],0%
same,MIC,[14],≤ 0.12 µg/mL
same,MIC50,[14],≤ 0.12 µg/mL
same,Activity,[39],100%
same,Activity,[40],0%
same,MIC,[15],≤ 0.12 µg/mL
same,MIC50,[15],≤ 0.12 µg/mL
same,MIC90,[15],≤ 0.12 µg/mL
same,Activity,[41],100%
same,Activity,[42],0%
same,MIC,[16],≤ 0.12 µg/mL
same,MIC50,[16],≤ 0.12 µg/mL
same,MIC90,[16],≤ 0.12 µg/mL
same,Activity,[43],100%
same,Activity,[44],0%
same,MIC,[17],≤ 0.12 µg/mL
same,MIC50,[17],≤ 0.12 µg/mL
same,MIC90,[17],≤ 0.12 µg/mL
same,Activity,[45],100%
same,Activity,[46],0%
same,MIC,[18],≤ 0.12 µg/mL
same,MIC50,[18],≤ 0.12 µg/mL
same,MIC90,[18],≤ 0.12 µg/mL
same,Activity,[47],100%
same,Activity,[48],0%
same,MIC,[19],≤ 0.12 µg/mL
same,MIC50,[19],≤ 0.12 µg/mL
same,MIC90,[19],≤ 0.12 µg/mL
same,Activity,[49],100%
same,Activity,[50],0%
same,MIC,[20],≤ 0.12 µg/mL
same,MIC50,[20],≤ 0.12 µg/mL
same,MIC90,[20],≤ 0.12 µg/mL
same,Activity,[51],100%
same,Activity,[52],0%
same,MIC,[21],≤ 0.12 µg/mL
same,MIC50,[21],≤ 0.12 µg/mL
same,MIC90,[21],16 µg/mL
same,Activity,[53],59.6%
same,Activity,[54],33.9%
same,MIC,[22],≤ 0.12 µg/mL
same,MIC50,[22],≤ 0.12 µg/mL
same,MIC90,[22],16 µg/mL
CC[C@H]1OC(=O)[C@H](C)[C@@H](O[C@H]2C[C@@](C)(OC)[C@@H](O)[C@H](C)O2)[C@H](C)[C@@H](O[C@@H]2O[C@H](C)C[C@H](N(C)C)[C@H]2O)[C@](C)(O)C[C@@H](C)C(=O)[C@H](C)[C@@H](O)[C@]1(C)O [ERYTHROMYCIN],MIC50,[21],0.25 µg/mL
same,MIC90,[21],0.5 µg/mL
same,Activity,[53],100%
same,Activity,[54],0%
same,MIC50,[22],0.25 µg/mL
same,MIC90,[22],0.5 µg/mL
